Legend:
Peritoneal macrophage = assay: cells; details: Mus musculus, Swiss, 120 h, read-out: pIC50 (converted)
in vitro = details: mouse, plasma

Row | remaining at 6 h (in vitro) [%] | Compound | IC50 (Peritoneal macrophage) [µM]
1 |  | N#Cc1ccccc1S(=O)(=O)N(Cc1ccccc1)Cc1ccccc1 | > 64.6
2 |  | COCCN(Cc1ccc(F)cc1)S(=O)(=O)c1cc(C#N)ccc1OC | > 64.6
3 |  | COc1ccc(C(=O)O)cc1S(=O)(=O)N(Cc1ccccc1)Cc1ccccc1 | > 64.6
4 |  | CS(=O)(=O)c1ccccc1S(=O)(=O)N(Cc1ccccc1)Cc1ccccc1 | > 64.6
5 |  | COc1ccc(S(=O)(=O)N(Cc2ccccc2)Cc2ccccc2)cc1 | > 64.6
6 |  | COc1ccc(S(N)(=O)=O)cc1S(=O)(=O)N(Cc1ccccc1)Cc1ccccc1 | > 64.6
7 |  | COc1ncccc1S(=O)(=O)N(Cc1ccccc1)Cc1ccccc1 | 64.6
8 |  | COc1ccc(OC)c(S(=O)(=O)N(Cc2ccc(F)cc2)c2ccc(F)cc2)c1 | > 64.6
9 |  | COc1ccc(C(N)=O)cc1S(=O)(=O)N(Cc1ccccc1)Cc1ccccc1 | > 64.6
10 |  | COCCOCN1CNc2cc(OC)c(S(=O)(=O)N(Cc3ccccc3)Cc3ccccc3)cc2S1(=O)=O | > 64.6
11 |  | COc1ccc(OC)c(S(=O)(=O)N(Cc2ccc(F)cc2)Cc2nc(C)no2)c1 | > 64.6
12 |  | COc1ccc(OC)c(S(=O)(=O)N(Cc2ccccc2)Cc2ccccc2)c1 | > 64.6
13 |  | COc1ccc(CN2CCOCC2)cc1S(=O)(=O)N(Cc1ccc(F)cc1)Cc1ccc(F)cc1 | > 64.6
14 |  | COc1ccc([S+](C)[O-])cc1S(=O)(=O)N(Cc1ccccc1)Cc1ccccc1 (stereo not drawn) | > 64.6
15 | 22 | COc1ccc(C(=O)N2CCOCC2)cc1S(=O)(=O)N(Cc1ccc(F)cc1)Cc1ccc(C(F)(F)F)nc1 | > 64.6
16 |  | Cn1cccc(S(=O)(=O)N(Cc2ccc(F)cc2)Cc2ccc(F)cc2)c1=O | 64.6

Row | remaining at 6 h (in vitro) [%] | Compound | IC50 (Peritoneal macrophage) [µM]
17 |  | COc1ccc(N2CCOCC2)cc1S(=O)(=O)N(Cc1ccc(F)cc1)Cc1ccc(F)cc1 | > 64.6
18 |  | COc1ccc(C#N)cc1S(=O)(=O)N(Cc1ccc(F)cc1)C1CCOCC1 | > 64.6
19 |  | COc1ccc(C(=O)N2CCOCC2)cc1S(=O)(=O)N(Cc1ccc(F)cc1)CC(C)C | > 64.6
20 |  | COc1ccc(C(=O)NC2COC2)cc1S(=O)(=O)N(Cc1ccc(F)cc1)Cc1ccc(F)cc1 | > 64.6
21 |  | COc1ccc(C#N)cc1S(=O)(=O)N(Cc1ccccc1)Cc1cnc(C(F)(F)F)nc1 | > 64.6
22 |  | COc1ccc(C#N)cc1S(=O)(=O)N(Cc1ccc(C(F)(F)F)nc1)Cc1ccc(C(F)(F)F)nc1 | > 64.6
23 |  | COc1ccc(C#N)cc1S(=O)(=O)N(Cc1ccccc1)Cc1ccccc1 | > 64.6
24 |  | COc1ccc(S(C)(=O)=O)cc1S(=O)(=O)N(Cc1ccc(F)cc1)Cc1ccc(F)cc1 | > 64.6
25 |  | COc1ccc(C(=O)N2CCOCC2)cc1S(=O)(=O)N(Cc1ccc(C(F)(F)F)nc1)CC(C)(C)C | > 64.6
26 | 42 | COc1ccc(C(=O)N2CCOCC2)cc1S(=O)(=O)N(Cc1ccccc1)Cc1cnc(C(F)(F)F)nc1 | > 64.6
27 |  | COc1ccc(C(=O)N2CCOCC2)cc1S(=O)(=O)N(Cc1ccccc1)CC(C)(C)C | > 64.6
28 |  | COc1ccc(OC)c(S(=O)(=O)N(Cc2ccc(F)cc2)Cc2cnc(OC)nc2OC)c1 | > 64.6
29 |  | O=S(=O)(c1cc(F)ccc1F)N(Cc1ccc(F)cc1)Cc1ccc(F)cc1 | > 64.6
30 |  | COc1ccccc1S(=O)(=O)N(Cc1ccccc1)Cc1ccccc1 | > 64.6
31 |  | COCCN(Cc1ccc(F)cc1)S(=O)(=O)c1cc(C(=O)N2CCOCC2)ccc1OC | > 64.6

— ChEMBL document CHEMBL4673183, “Hit-to-lead optimization of a benzene sulfonamide series for potential antileishmanial agents” (RSC Med Chem, 2020)
